Measurements published in PMC6299220 (mBio, 2018).
≈ marks a conversion by molar mass, not a printed value.

How the values were obtained:
[1] = tested on: M. tuberculosis DRM167-16x3 (KasA V123A); assay type: cell-based, Mycobacterium tuberculosis
[2] = tested on: M. tuberculosis DRM167-8x6 (KasA M213L); assay type: cell-based, Mycobacterium tuberculosis
[3] = tested on: M. tuberculosis DRM167-8x3 (KasA I145T); assay type: cell-based, Mycobacterium tuberculosis
[4] = tested on: M. tuberculosis DRM167-16x6 (KasA I122S); assay type: cell-based, Mycobacterium tuberculosis
[5] = tested on: M. tuberculosis DRM167-8x2 (KasA A119T); assay type: cell-based, Mycobacterium tuberculosis
[6] = tested on: M. tuberculosis DRM167-32x11 (KasA G240S); assay type: cell-based, Mycobacterium tuberculosis
[7] = tested on: M. tuberculosis DRM167-32x2 (KasA P206T); assay type: cell-based, Mycobacterium tuberculosis
[8] = tested on: M. tuberculosis mc^24914; assay: microbe, parasite or virus in culture; assay type: cell-based; details: Mycobacterium tuberculosis
[9] = tested on: M. tuberculosis TDR31; assay: microbe, parasite or virus in culture; assay type: cell-based; details: Mycobacterium tuberculosis
[10] = tested on: M. tuberculosis TDR116; assay: microbe, parasite or virus in culture; assay type: cell-based; details: Mycobacterium tuberculosis
[11] = tested on: mycolic acid biosynthesis in M. tuberculosis DRM167-32x2 (KasA P206T); assay type: cell-based, Mycobacterium tuberculosis
[12] = tested on: M. tuberculosis
[13] = tested on: M. tuberculosis DRM5; assay: microbe, parasite or virus in culture; assay type: cell-based; details: Mycobacterium tuberculosis
[14] = tested on: M. tuberculosis DRM8.3; assay: microbe, parasite or virus in culture; assay type: cell-based; details: Mycobacterium tuberculosis
[15] = tested on: M. tuberculosis TDR36; assay: microbe, parasite or virus in culture; assay type: cell-based; details: Mycobacterium tuberculosis

SMILES | MIC [1] [µM] | MIC [2] [µM] | MIC [3] [µM] | MIC [4] [µM] | MIC [5] [µM] | MIC [6] [µM] | MIC [7] [µM] | MIC [8] [µM] | MIC [9] [µM] | MIC [10] [µM] | inhibition of mycolic acid biosynthesis [11] | frequency of resistant mutants [12] | MIC [13] [µM] | MIC [14] [µM] | MIC [15] [µM]
COc1nc2ccc(Br)cc2cc1[C@@H](c1ccccc1)[C@@](O)(CCN(C)C)c1cccc2ccccc12 [BDQ, bedaquiline] | 0.5 (≈ 0.278 µg/mL) | 0.5 (≈ 0.278 µg/mL) | 1 (≈ 0.556 µg/mL) | 0.5 (≈ 0.278 µg/mL) | 0.5 (≈ 0.278 µg/mL) | 0.25 (≈ 0.139 µg/mL) | 0.12 (≈ 0.0667 µg/mL) |  |  |  |  |  |  |  | 
CCCCS(=O)(=O)Nc1ccc2cnn(C)c2c1 [DG167, N-(1-Methyl-1H-indazol-6-yl)butane-1-sulfonamide] | 1.56 (≈ 0.417 µg/mL) | 3.12 (≈ 0.834 µg/mL) | 6.25 (≈ 1.67 µg/mL) | 50 (≈ 13.4 µg/mL) | 50 (≈ 13.4 µg/mL) | 100 (≈ 26.7 µg/mL) | >100 | 0.78 (≈ 0.209 µg/mL) | 0.2 (≈ 0.0535 µg/mL) | 0.2 (≈ 0.0535 µg/mL) | resistant to DG167-mediated inhibition of mycolic acid biosynthesis | 1 × 10^−7 |  |  | 
CC[C@@H](CO)NCCN[C@@H](CC)CO [EMB, ethambutol] | 1.56 (≈ 0.319 µg/mL) | 1.56 (≈ 0.319 µg/mL) | 1.56 (≈ 0.319 µg/mL) | 1.56 (≈ 0.319 µg/mL) | 1.56 (≈ 0.319 µg/mL) | 1.56 (≈ 0.319 µg/mL) | 1.56 (≈ 0.319 µg/mL) |  |  |  |  |  |  |  | 
CCc1cc(C(N)=S)ccn1 [ETH, ethionamide] | 25 (≈ 4.16 µg/mL) | 25 (≈ 4.16 µg/mL) | 25 (≈ 4.16 µg/mL) | 12.5 (≈ 2.08 µg/mL) | 12.5 (≈ 2.08 µg/mL) | 12.5 (≈ 2.08 µg/mL) | 12.5 (≈ 2.08 µg/mL) |  |  |  |  |  |  |  | 
NNC(=O)c1ccncc1 [INH, isoniazid] | 0.38 (≈ 0.0521 µg/mL) | 0.38 (≈ 0.0521 µg/mL) | 0.38 (≈ 0.0521 µg/mL) | 0.19 (≈ 0.0261 µg/mL) | 0.38 (≈ 0.0521 µg/mL) | 0.19 (≈ 0.0261 µg/mL) | 0.19 (≈ 0.0261 µg/mL) | 1.6 (≈ 0.219 µg/mL) | > 12 | > 12 |  |  | 0.4 (≈ 0.0549 µg/mL) | 0.4 (≈ 0.0549 µg/mL) | > 12
COc1c(N2C[C@@H]3CCCN[C@@H]3C2)c(F)cc2c(=O)c(C(=O)O)cn(C3CC3)c12 [Moxi, moxifloxacin] | 0.03 (≈ 0.012 µg/mL) | 0.03 (≈ 0.012 µg/mL) | 0.03 (≈ 0.012 µg/mL) | 0.03 (≈ 0.012 µg/mL) | 0.03 (≈ 0.012 µg/mL) | 0.03 (≈ 0.012 µg/mL) | 0.03 (≈ 0.012 µg/mL) |  |  |  |  |  |  |  | 
O=[N+]([O-])c1cn2c(n1)OC[C@@H](OCc1ccc(OC(F)(F)F)cc1)C2 [PA824] | 0.1 (≈ 0.0359 µg/mL) | 0.1 (≈ 0.0359 µg/mL) | 0.1 (≈ 0.0359 µg/mL) | 0.1 (≈ 0.0359 µg/mL) | 0.1 (≈ 0.0359 µg/mL) | 0.1 (≈ 0.0359 µg/mL) | 0.1 (≈ 0.0359 µg/mL) |  |  |  |  |  |  |  | 
CO[C@H]1/C=C/O[C@@]2(C)Oc3c(C)c(O)c4c(O)c(c(/C=N/N5CCN(C)CC5)c(O)c4c3C2=O)NC(=O)/C(C)=C\C=C\[C@H](C)[C@H](O)[C@@H](C)[C@@H](O)[C@@H](C)[C@H](OC(C)=O)[C@@H]1C [RIF, rifampin] | 0.001 (≈ 0.000823 µg/mL) | 0.001 (≈ 0.000823 µg/mL) | 0.002 (≈ 0.00165 µg/mL) | 0.001 (≈ 0.000823 µg/mL) | 0.001 (≈ 0.000823 µg/mL) | 0.001 (≈ 0.000823 µg/mL) | 0.001 (≈ 0.000823 µg/mL) |  |  |  |  |  |  |  | 
CC(C)=CCC/C(C)=C/CNCCNC1C2CC3CC(C2)CC1C3 (centres unmarked) [SQ109] | 0.8 (≈ 0.264 µg/mL) | 0.4 (≈ 0.132 µg/mL) | 0.8 (≈ 0.264 µg/mL) | 0.4 (≈ 0.132 µg/mL) | 0.8 (≈ 0.264 µg/mL) | 0.4 (≈ 0.132 µg/mL) | 0.4 (≈ 0.132 µg/mL) |  |  |  |  |  |  |  | 
